By EC50 is commonly meant the concentration that produces a half-maximal response. A higher EC50 goes with a less potent agent.

25 molecules from PMC6355875 (Scientific Reports, 2019) can be followed below.

Bounds are passed on as bounds.

Common to all, as to type: cell-based
The target of one experiment is T1, hPPAR-γ (Homo sapiens, UniProt P37231).
T1 construct: expressed in transfected cells; host or cells: HEK293T
T1 sequence (P37231 184-477 isoform P37231-2): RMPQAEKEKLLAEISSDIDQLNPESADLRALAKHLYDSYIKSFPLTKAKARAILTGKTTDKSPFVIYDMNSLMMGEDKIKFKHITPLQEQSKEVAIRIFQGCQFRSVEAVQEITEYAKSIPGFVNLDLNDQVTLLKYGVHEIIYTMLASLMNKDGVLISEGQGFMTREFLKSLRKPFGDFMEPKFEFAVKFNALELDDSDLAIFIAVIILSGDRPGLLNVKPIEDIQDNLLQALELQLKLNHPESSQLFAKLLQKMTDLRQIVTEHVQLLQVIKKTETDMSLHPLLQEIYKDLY
In words: GAL4-DBD hPPARγ/LBD luciferase reporter assay in HEK293T cells. The conditions noted are these: activation, overnight. Here is the method:
(§1) A GAL4-DNA Binding Domain (GAL4-DBD) fusion protein was constructed for each PPAR family member. To assess compound activity, each construct was co-transfected into HEK293T cells (American Type Culture Collection; Manassass, VA) along with the reporter construct, pGL5 (Promega) using Fugene 6 (Promega) as a transfection reagent and the manufacturer’s protocol. An eleven point dilution series of each compound was added to the cells and incubated overnight. Luciferase levels were then determined following the addition of Bright-Glo (Promega) using the manufacturer’s recommendations.
Background: A reporter such as luciferase makes a cellular process visible.

The target of another experiment is T2, hPPAR-α (Homo sapiens, UniProt Q07869).
T2 construct: expressed in transfected cells; host or cells: HEK293T
T2 sequence (Q07869 175-468): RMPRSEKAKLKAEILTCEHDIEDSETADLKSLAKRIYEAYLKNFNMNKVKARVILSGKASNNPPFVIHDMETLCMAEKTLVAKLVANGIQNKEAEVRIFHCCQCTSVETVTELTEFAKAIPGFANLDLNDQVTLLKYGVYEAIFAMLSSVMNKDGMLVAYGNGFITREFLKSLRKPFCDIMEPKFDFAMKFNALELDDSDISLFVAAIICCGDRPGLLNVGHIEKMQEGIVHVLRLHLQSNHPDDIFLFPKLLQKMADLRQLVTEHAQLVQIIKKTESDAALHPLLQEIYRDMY
In words: GAL4-DBD hPPARα/LBD luciferase reporter assay in HEK293T cells. The conditions noted are these: activation, overnight. How it is done: as §1

The next experiment concerns the target T3, hPPAR-δ (Homo sapiens, UniProt Q03181).
T3 construct: expressed in transfected cells; host or cells: HEK293T
T3 sequence (Q03181 147-441): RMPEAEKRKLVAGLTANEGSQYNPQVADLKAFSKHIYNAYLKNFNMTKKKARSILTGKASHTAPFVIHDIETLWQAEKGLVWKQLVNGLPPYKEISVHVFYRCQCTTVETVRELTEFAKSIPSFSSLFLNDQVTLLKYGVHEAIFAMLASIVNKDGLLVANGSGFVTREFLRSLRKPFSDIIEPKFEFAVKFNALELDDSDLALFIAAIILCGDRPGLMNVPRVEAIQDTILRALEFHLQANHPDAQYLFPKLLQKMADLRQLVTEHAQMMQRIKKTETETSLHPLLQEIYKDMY
Briefly: GAL4-DBD hPPARδ/LBD luciferase reporter assay in HEK293T cells. Conditions: for EC50: activation, HEK293T reporter, overnight; for hPPAR subtype profile: from EC50 on hPPAR-δ, -α, -γ. How it is done: as §1

In the case of `Cc1cccc(OCCNC(=O)COc2ccc(CC(=O)O)cc2)c1` [GNF-0242, CC1=CC=CC(OCCNC(=O)COC2=CC=C(CC(O)=O)C=C2)=C1], the EC50 on hPPAR-γ and at hPPAR-α was > 10 µM in each case.

`O=C(COc1ccc(C(=O)O)cc1)NC(c1ccccc1)c1ccc(Cl)cc1` (centres unmarked) [GNF-0248, OC(=O)C1=CC=C(OCC(=O)NC(C2=CC=CC=C2)C2=CC=C(Cl)C=C2)C=C1]: the EC50 at hPPAR-γ was > 10 µM; at hPPAR-α, 7.04 µM; at hPPAR-δ, 7.55 µM.

`Cc1ccc(C(=O)Nc2cccc(CNCc3ccc(OC(F)(F)F)cc3)c2)cc1` [GNF-0341, CC1=CC=C(C=C1)C(=O)NC1=CC=CC(CNCC2=CC=C(OC(F)(F)F)C=C2)=C1]: the EC50 at hPPAR-γ is 1.26 µM; on hPPAR-α, > 10 µM; at hPPAR-δ it was 0.011 µM. On hPPAR-δ, the “hPPAR subtype profile” value was “agonists of hPPAR-δ and hPPAR-γ only”.

Take `O=C(O)Cc1csc(SCc2cc(F)cc3c2OC(c2ccccc2)OC3)n1` (centres unmarked) [GNF-1051, OC(=O)CC1=CSC(SCC2=CC(F)=CC3=C2OC(OC3)C2=CC=CC=C2)=N1]: the EC50 on hPPAR-γ is > 10 µM; at hPPAR-α, 7.33 µM; on hPPAR-δ it was 7.76 µM.

`CCCOc1c(/C=C/C(=O)c2ccc(SCC(=O)O)c(OC)c2)cccc1OCC` [GNF-1676, CCCOC1=C(OCC)C=CC=C1C=CC(=O)C1=CC=C(SCC(O)=O)C(OC)=C1]: the EC50 at hPPAR-γ was 1.29 µM; at hPPAR-α, 6.19 µM; at hPPAR-δ it was 8.39 µM.

With `O=C(NCc1ccc(COCC(F)(F)F)cc1)c1cc(-c2ccccc2)[nH]n1` [GNF-3632, FC(F)(F)COCC1=CC=C(CNC(=O)C2=NNC(=C2)C2=CC=CC=C2)C=C1], the values for the EC50 on hPPAR-γ, at hPPAR-α and at hPPAR-δ were > 10 µM, 5.48 µM and 0.007 µM, respectively. In addition, the “hPPAR subtype profile” value on hPPAR-δ is “agonists of hPPAR-δ and hPPAR-α only”.

Regarding `CCOc1cc(/C=C/C(=O)O)ccc1OCc1ccc(C(C)(C)C)cc1` [GNF-4516, CCOC1=CC(C=CC(O)=O)=CC=C1OCC1=CC=C(C=C1)C(C)(C)C], the EC50 on hPPAR-γ is > 10 µM; at hPPAR-α, 2.33 µM; on hPPAR-δ, 6.82 µM.

Take `COc1ccc(C(=O)/C=C/c2c(C)nn(-c3ccccc3)c2Cl)cc1CSCC(=O)O` [GNF-4909, COC1=CC=C(C=C1CSCC(O)=O)C(=O)C=CC1=C(Cl)N(N=C1C)C1=CC=CC=C1]: the EC50 on hPPAR-γ was 1.83 µM; on hPPAR-α, 0.825 µM; on hPPAR-δ, 8.24 µM.

In turn, `COCCCn1c(SCc2cccc(C(=O)O)c2)nc2sc3c(c2c1=O)CCCS3` [GNF-5154, COCCCN1C(=O)C2=C(SC3=C2CCCS3)N=C1SCC1=CC=CC(=C1)C(O)=O] showed an EC50 at hPPAR-δ of 7.04 µM. This lies in the single-digit micromolar range.

As to `COc1cc(/C=C2/S/C(=N/c3ccccc3)NC2=O)ccc1OCc1cccc(C(=O)O)c1` [GNF-5758, COC1=CC(C=C2SC(NC2=O)=NC2=CC=CC=C2)=CC=C1OCC1=CC=CC(=C1)C(O)=O], the EC50 is 9.73 µM on hPPAR-γ, 6.93 µM at hPPAR-α and 4.33 µM on hPPAR-δ.

Regarding `O=C(Nc1ccccc1O)C1CCN(C(=O)COc2ccc(F)cc2)CC1` [GNF-5891, OC1=CC=CC=C1NC(=O)C1CCN(CC1)C(=O)COC1=CC=C(F)C=C1], the results for the EC50 at hPPAR-γ, on hPPAR-α and at hPPAR-δ were 7.28 µM, > 10 µM and 0.013 µM, respectively.

As for `O=C(Nc1cccc(CNCC(c2cccs2)N2CCOCC2)c1)c1ccc(Cl)cc1` (centres unmarked) [GNF-6029, ClC1=CC=C(C=C1)C(=O)NC1=CC=CC(CNCC(N2CCOCC2)C2=CC=CS2)=C1], the 50% effective concentration (EC50) at hPPAR-γ was > 10 µM; on hPPAR-α it was > 10 µM; at hPPAR-δ, 0.012 µM.

As for `CCOc1cccc(/C=N/c2cccc(-c3csc(/N=C/c4cccc(OCC)c4O)n3)c2)c1O` [GNF-6878, CCOC1=CC=CC(C=NC2=NC(=CS2)C2=CC=CC(=C2)N=CC2=CC=CC(OCC)=C2O)=C1O], the EC50 on hPPAR-γ was > 10 µM; at hPPAR-α, > 10 µM; on hPPAR-δ it was 0.008 µM.

With `O=C(OCC(=O)c1ccc(O)cc1O)c1ccc(COc2ccc3ccccc3c2)o1` [GNF-6928, OC1=CC=C(C(=O)COC(=O)C2=CC=C(COC3=CC=C4C=CC=CC4=C3)O2)C(O)=C1], the 50% effective concentration (EC50) was 3.78 µM on hPPAR-γ, 6.9 µM at hPPAR-α and 3.7 µM on hPPAR-δ.

Consider `COc1cc(CNCc2cc(C)on2)ccc1OCC(=O)Nc1ccc(Br)cc1` [GNF-6952, COC1=CC(CNCC2=NOC(C)=C2)=CC=C1OCC(=O)NC1=CC=C(Br)C=C1], for which the half-maximal effective concentration (EC50) on hPPAR-γ was > 10 µM; at hPPAR-α it was 7.56 µM; at hPPAR-δ it was 0.019 µM. Moreover, at hPPAR-δ, the “hPPAR subtype profile” value was “agonists of hPPAR-δ and hPPAR-α only”.

As for `O=C(NCCCCOc1ccc(F)cc1)c1ccc([N+](=O)[O-])c(O)c1` [GNF-7176, OC1=CC(=CC=C1[N+]([O-])=O)C(=O)NCCCCOC1=CC=C(F)C=C1], the EC50 is > 10 µM on hPPAR-γ, > 10 µM on hPPAR-α and 7.24 µM at hPPAR-δ.

`COc1ccc(N2CCN(C(=O)CSc3nnc(COc4ccc(Cl)cc4C)[nH]3)CC2)cc1` [GNF-7486, COC1=CC=C(C=C1)N1CCN(CC1)C(=O)CSC1=NN=C(COC2=CC=C(Cl)C=C2C)N1]: the EC50 is > 10 µM at hPPAR-γ, > 10 µM at hPPAR-α and 0.018 µM at hPPAR-δ.

Regarding `COc1ccc(CNCc2ccc(Oc3cccnc3)c(F)c2)cc1O` [GNF-8065, COC1=CC=C(CNCC2=CC=C(OC3=CC=CN=C3)C(F)=C2)C=C1O], the EC50 at hPPAR-γ and at hPPAR-α was > 10 µM throughout.

Consider `CC(C(=O)Nc1ccc(SC(F)F)cc1)N1CC=C(c2ccc(O)cc2)CC1` (centres unmarked) [GNF-8208, CC(N1CCC(=CC1)C1=CC=C(O)C=C1)C(=O)NC1=CC=C(SC(F)F)C=C1], for which the EC50 at hPPAR-γ is > 10 µM; on hPPAR-α, > 10 µM; at hPPAR-δ, 7.86 µM.

In the case of `O=C(CN1CCN(c2ccc(O)cc2)CC1)NCC1(N2CCOCC2)CCCCC1` [GNF-8501, OC1=CC=C(C=C1)N1CCN(CC(=O)NCC2(CCCCC2)N2CCOCC2)CC1], the EC50 on hPPAR-γ is > 10 µM; at hPPAR-α it was > 10 µM; on hPPAR-δ, 0.006 µM.

Take `Cc1cc(C(=O)COc2ccc(C(=O)O)cc2)c(C)n1CCC1=CCCCC1` [GNF-9057, CC1=CC(C(=O)COC2=CC=C(C=C2)C(O)=O)=C(C)N1CCC1=CCCCC1]: the EC50 is 8.59 µM on hPPAR-γ, 4.63 µM at hPPAR-α and 7.49 µM on hPPAR-δ.

On to `O=C(Nc1ccccc1O)C1CCN(C(=O)c2ccc(OCC3CCCO3)cc2)CC1` (centres unmarked) [GNF-9448, OC1=CC=CC=C1NC(=O)C1CCN(CC1)C(=O)C1=CC=C(OCC2CCCO2)C=C1], for which the EC50 at hPPAR-γ amounted to 0.937 µM; at hPPAR-α it was 7.06 µM; on hPPAR-δ, 0.883 µM.

For the molecule `O=[N+]([O-])c1cc(S(=O)(=O)N2CCCC2)ccc1OCC(O)CNCc1ccc(F)cc1` (centres unmarked) [GNF-9594, OC(CNCC1=CC=C(F)C=C1)COC1=CC=C(C=C1[N+]([O-])=O)S(=O)(=O)N1CCCC1], the EC50 on hPPAR-γ was > 10 µM; on hPPAR-α, > 10 µM; on hPPAR-δ, 4.6 µM.

Turning to `Cc1ccc(-c2nc(SCCCC(=O)N3CCOCC3)[nH]c2-c2ccc(C)cc2)cc1` [GNF-9820, CC1=CC=C(C=C1)C1=C(N=C(N1)SCCCC(=O)N1CCOCC1)C1=CC=C(C)C=C1], the EC50 at hPPAR-γ was > 10 µM; on hPPAR-α, > 10 µM; on hPPAR-δ it was 0.012 µM.

On to `Cc1cc(C(=O)COC(=O)c2ccc(O)cc2O)c(C)n1Cc1ccc(F)cc1` [GNF-9969, CC1=CC(C(=O)COC(=O)C2=CC=C(O)C=C2O)=C(C)N1CC1=CC=C(F)C=C1], for which the half-maximal effective concentration (EC50) at hPPAR-γ was 1.01 µM; on hPPAR-α, 6.94 µM; at hPPAR-δ it was 9.48 µM.
